Assay results from paper PMC6572064, “Discovery of 2-(1-(3-(4-Chloroxyphenyl)-3-oxo- propyl)pyrrolidine-3-yl)-1H-benzo[d]imidazole-4-carboxamide: A Potent Poly(ADP-ribose) Polymerase (PARP) Inhibitor for Treatment of Cancer” (Molecules, 2019).
Like-named read-outs stand apart in the source and are kept apart here.

Columns and labels:
[1] = target: T1, PARP-1 (Homo sapiens, UniProt P09874); assay: PARP-1 inhibition assay (PARP-1 Chemiluminescent Assay Kit, BPS Bioscience); type: biochemical; conditions: 10 nM compound
T1 construct: purchased BPS Bioscience 80569
Protocol: (§1) The PARP-1 and PARP-2 inhibition assays were performed in outsourcing, by a CRO company, Shanghai Medicilon Inc. (Shanghai, China). […] Briefly, PARP-1 or PARP-2 biotinylated substrate was incubated with compounds or solvent control at varying concentrations and an assay buffer containing the PARP-1 or PARP-2 enzyme.

[2] = target: T2, PARP-2 (Homo sapiens, UniProt Q9UGN5); assay: PARP-2 inhibition assay (PARP-2 Chemiluminescent Assay Kit, BPS Bioscience); type: biochemical; conditions: 10 nM compound
T2 construct: purchased BPS Bioscience 80552
Protocol: as §1

[3] = test system: CAPAN-1 (a BRCA-2-mutated pancreatic cancer cell line); assay: Cell proliferation assay, three-day, CellTiter-Glo, CAPAN-1; type: cell-based; conditions: for inhibition at 0.00508 µM: CAPAN-1, 0.00508 uM; for inhibition at 0.0152 µM: CAPAN-1, 0.0152 uM; for inhibition at 0.0457 µM: CAPAN-1, 0.0457 uM; for inhibition at […]: CAPAN-1, 0.14 uM; for inhibition at 0.41 µM: CAPAN-1, 0.41 uM; for inhibition at 1.23 µM: CAPAN-1, 1.23 uM; for inhibition at 3.7 µM: CAPAN-1, 3.70 uM; for inhibition at 11.11 µM: CAPAN-1, Conc. 11.11 uM; for inhibition at 33.33 µM: CAPAN-1, Conc. 33.33 uM; for inhibition at 100 µM: CAPAN-1, Conc. 100.00 uM
Protocol: (§2) A three-day assay was conducted. A cell suspension was prepared. Cell density was counted by an automated cell counter and then diluted to the required density, according to seeding density. 50 μL cells were seeded into 384-well plate in growth medium according to the plate map. The cells were incubated at 37 °C, 5% CO2 overnight.
(§3) 200× compound solution in DMSO was prepared and diluted with growth medium to 26× final concentration by addition of 26 μL 200× compounds to 174 μL growth medium. Then 2 μL of diluted compound solution was added to cells and the cell was incubated at 37 °C, 5% CO2 for 72 h.
(§4) The assay plate was equilibrated to room temperature prior to measurement. 15 μL of CellTiter-Glo Reagent was added into each well and the contents were mixed for 2 min on an orbital shaker to induce cell lysis. The cells were incubated at room temperature for 60 min to stabilize luminescent signal. Luminescence was recorded on the Envision system.

[4] = test system: MDA-MB-436 (a BRCA-1-mutated breast cancer cell line); assay: Cell proliferation assay, three-day, CellTiter-Glo, MDA-MB-436; type: cell-based; conditions: for inhibition at 0.00508 µM: MDA-MB-436, MDA-MB-436, Conc. 0.00508 uM; for inhibition at 0.0152 µM: MDA-MB-436, MDA-MB-436, Conc. 0.0152 uM; for inhibition at 0.0457 µM: MDA-MB-436, MDA-MB-436, Conc. 0.0457 uM; for inhibition at 0.41 µM: MDA-MB-436, MDA-MB-436, Conc. 0.41 uM; for inhibition at 1.23 µM: MDA-MB-436, MDA-MB-436, Conc. 1.23 uM; for inhibition at 3.7 µM: MDA-MB-436, MDA-MB-436, Conc. 3.70 uM
Protocol: as §2, §3, §4

[5] = CAPAN-1, curve fit of Inh %, plate 1
[6] = Homo sapiens, replicate 1, read-out: Inh % 1
[7] = Homo sapiens, replicate 2, read-out: Inh % 2

T2 sequence (Q9UGN5 whole entry): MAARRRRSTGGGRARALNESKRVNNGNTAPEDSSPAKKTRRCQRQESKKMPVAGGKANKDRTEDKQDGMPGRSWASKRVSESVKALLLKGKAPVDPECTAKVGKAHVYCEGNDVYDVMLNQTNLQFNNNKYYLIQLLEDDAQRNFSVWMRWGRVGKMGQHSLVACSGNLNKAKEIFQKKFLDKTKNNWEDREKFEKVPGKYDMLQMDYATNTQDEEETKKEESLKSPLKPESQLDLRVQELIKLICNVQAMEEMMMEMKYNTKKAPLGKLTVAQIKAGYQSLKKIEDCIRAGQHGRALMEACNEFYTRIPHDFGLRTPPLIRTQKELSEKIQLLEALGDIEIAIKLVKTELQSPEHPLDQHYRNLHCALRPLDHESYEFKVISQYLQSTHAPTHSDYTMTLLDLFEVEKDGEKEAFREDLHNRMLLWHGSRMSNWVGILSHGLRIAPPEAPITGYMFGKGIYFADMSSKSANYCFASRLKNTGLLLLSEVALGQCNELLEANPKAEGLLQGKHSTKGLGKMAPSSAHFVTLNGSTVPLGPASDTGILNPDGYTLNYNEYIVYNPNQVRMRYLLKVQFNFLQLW
T1 sequence (P09874 whole entry): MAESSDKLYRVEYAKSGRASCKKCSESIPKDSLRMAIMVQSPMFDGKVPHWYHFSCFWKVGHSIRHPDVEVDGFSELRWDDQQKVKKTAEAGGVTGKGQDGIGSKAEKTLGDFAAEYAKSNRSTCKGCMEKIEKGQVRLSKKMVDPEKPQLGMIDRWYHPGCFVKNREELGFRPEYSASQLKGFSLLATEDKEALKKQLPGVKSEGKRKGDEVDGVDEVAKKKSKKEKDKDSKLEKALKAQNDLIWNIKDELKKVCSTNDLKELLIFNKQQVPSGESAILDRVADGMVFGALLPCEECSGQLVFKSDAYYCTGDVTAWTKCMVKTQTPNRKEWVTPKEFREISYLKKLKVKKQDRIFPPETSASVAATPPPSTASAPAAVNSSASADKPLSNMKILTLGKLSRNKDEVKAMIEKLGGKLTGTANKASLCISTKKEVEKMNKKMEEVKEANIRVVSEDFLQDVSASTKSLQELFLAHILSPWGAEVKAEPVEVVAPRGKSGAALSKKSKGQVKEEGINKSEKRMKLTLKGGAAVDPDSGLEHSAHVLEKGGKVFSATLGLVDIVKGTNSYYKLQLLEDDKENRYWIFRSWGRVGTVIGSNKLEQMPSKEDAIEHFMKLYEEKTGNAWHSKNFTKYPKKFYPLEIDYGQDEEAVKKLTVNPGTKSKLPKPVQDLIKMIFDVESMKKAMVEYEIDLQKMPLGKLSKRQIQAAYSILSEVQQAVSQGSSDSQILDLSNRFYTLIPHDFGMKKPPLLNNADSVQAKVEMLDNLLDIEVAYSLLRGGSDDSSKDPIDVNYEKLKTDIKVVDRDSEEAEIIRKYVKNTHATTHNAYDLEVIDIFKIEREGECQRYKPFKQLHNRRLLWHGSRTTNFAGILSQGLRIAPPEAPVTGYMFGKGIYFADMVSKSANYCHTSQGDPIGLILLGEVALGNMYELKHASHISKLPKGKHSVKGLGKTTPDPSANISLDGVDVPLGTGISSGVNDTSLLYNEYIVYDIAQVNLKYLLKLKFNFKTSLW

## NC(=O)c1cccc2[nH]c(C3CCN(CC(=O)Nc4ccccc4)C3)nc12 (centres unmarked) [Compound 5ca, 2-(1-(2-Oxo-2-(phenylamino)ethyl)pyrrolidin-3-yl)-1H-benzo[d]imidazole-4-carboxamide]
[1]; supplement sheet, read-out: 10 nM inhibition% PAPR-1
  inhibition at 0.01 µM: 17.6%
[1]; read-out: PARP-1 Inhibition % (10 nM)
  inhibition at 0.01 µM: 17.6%
[2]; supplement sheet, read-out: 10 nM inhibition% PAPR-2
  inhibition at 0.01 µM: 34.5%
[2]; read-out: PARP-2 Inhibition % (10 nM)
  inhibition at 0.01 µM: 34.5%
[3]; [5]
  Bottom: 11.48
  HillSlope: 1.045
  Top: = 100.0
[3]; CAPAN-1, curve fit, plate 1
  LogIC50: 2.027 Log (uM)
[3]; Homo sapiens, CAPAN-1, 72 h, CellTiter-Glo, read-out: CAPAN-1 IC50
  IC50: > 100 µM
[3]; [6]
  inhibition at 0.00508 µM: -2.6%
  inhibition at 0.0152 µM: -2.3%
  inhibition at 0.0457 µM: 6.6%
  inhibition at […]: 7.4%
  inhibition at 0.41 µM: 22.5%
  inhibition at 1.23 µM: 21.1%
  inhibition at 3.7 µM: 8.2%
  inhibition at 11.11 µM: 22.1%
  inhibition at 33.33 µM: 29.2%
  inhibition at 100 µM: 59.9%
[3]; [7]
  inhibition at 0.00508 µM: 19.1%
  inhibition at 0.0152 µM: 9.8%
  inhibition at 0.0457 µM: 22%
  inhibition at […]: 15.6%
  inhibition at 0.41 µM: 10.9%
  inhibition at 1.23 µM: 9.6%
  inhibition at 3.7 µM: 19.9%
  inhibition at 11.11 µM: 20.4%
  inhibition at 33.33 µM: 28.3%
  inhibition at 100 µM: 51.1%
[4]; [6]
  inhibition at 0.00508 µM: -8.8%
  inhibition at 0.0152 µM: -0.8%
  inhibition at 0.0457 µM: -1.6%
  inhibition at 0.41 µM: 2.8%
  inhibition at 1.23 µM: 5.5%
  inhibition at 3.7 µM: 10.4%
[4]; [7]
  inhibition at 0.00508 µM: -5.8%
  inhibition at 0.0152 µM: -6.8%
  inhibition at 0.0457 µM: -6.8%
  inhibition at 0.41 µM: -7.6%
  inhibition at 1.23 µM: -1.8%
  inhibition at 3.7 µM: 0.639%
[4]; Homo sapiens, MDA-MB-436, MDA-MB-436, Conc. 11.11 uM, duplicate wells (Inh % 1, Inh % 2), read-out: Inh %
  inhibition at 11.11 µM: 15.1%
[4]; Homo sapiens, MDA-MB-436, MDA-MB-436, Conc. 33.33 uM, duplicate wells (Inh % 1, Inh % 2), read-out: Inh %
  inhibition at 33.33 µM: 68.9%
[4]; Homo sapiens, MDA-MB-436, MDA-MB-436, Conc. 100.00 uM, duplicate wells (Inh % 1, Inh % 2), read-out: Inh %
  inhibition at 100 µM: 93.3%
[4]; Homo sapiens, MDA-MB-436, 72 h, CellTiter-Glo, read-out: MDA-MB-436 IC50
  IC50: 22.9 µM
[4]; Homo sapiens, MDA-MB-436, 72 h, supplement Summary sheet, read-out: IC50
  IC50: 22.9 µM
[4]; Homo sapiens, MDA-MB-436, curve fit list, no unit in the cell, concentration in uM, read-out: IC50
  IC50: 22.9 µM
[4]; MDA-MB-436, Conc. 11.11 uM, duplicate wells (Inh % 1, Inh % 2)
  Inh %: 9.5%
[4]; MDA-MB-436, Conc. 33.33 uM, duplicate wells (Inh % 1, Inh % 2)
  Inh %: 56.4%
[4]; MDA-MB-436, Conc. 100.00 uM, duplicate wells (Inh % 1, Inh % 2)
  Inh %: 81.3%
[4]; MDA-MB-436, curve fit parameter (Inh %)
  Bottom: -3.40
[4]; MDA-MB-436, curve fit parameter (Inh %), '= 100.0' is a constrained value
  Top: 92.23
[4]; MDA-MB-436, curve fit, concentration axis Log (uM)
  LogIC50: 1.36
